Reference: the NIST ThermoML archive (doi:10.1021/je060203o)
Numbers after ± are expanded uncertainties.

Settings: Liquid; for mass density: Vibrating tube method; for speed of sound: Pulse-echo method

CCCn1cc[n+](C)c1.O=S(=O)([N-]S(=O)(=O)C(F)(F)F)C(F)(F)F
Settings | mass density [kg/m3] | speed of sound [m/s]
298.15 K, 100 kPa | 1475.7 ± 2.5 | –
298.15 K, 500 kPa | – | 1236.4 ± 3.1
298.15 K, 1830 kPa | 1476.98 ± 2.6 | –
298.15 K, 3500 kPa | – | 1246.5 ± 3.1
298.15 K, 7000 kPa | – | 1258.2 ± 3.1
298.15 K, 10000 kPa | – | 1268 ± 3.1
298.15 K, 10020 kPa | 1483.13 ± 2.8 | –
298.15 K, 13500 kPa | – | 1279.2 ± 3.1
298.15 K, 14980 kPa | 1486.69 ± 3 | –
298.15 K, 17000 kPa | – | 1290 ± 3.1
298.15 K, 19750 kPa | 1490.06 ± 3.1 | –
298.15 K, 20000 kPa | – | 1299.2 ± 3.1
298.15 K, 25860 kPa | 1494.22 ± 3.2 | –
298.15 K, 30000 kPa | – | 1329.2 ± 3.2
298.15 K, 31480 kPa | 1497.95 ± 3.4 | –
298.15 K, 37770 kPa | 1502.01 ± 3.6 | –
298.15 K, 40000 kPa | – | 1357.5 ± 3.2
298.15 K, 44170 kPa | 1506.01 ± 3.8 | –
298.15 K, 50000 kPa | – | 1384.5 ± 3.2
298.15 K, 50750 kPa | 1509.97 ± 4 | –
298.15 K, 59590 kPa | 1515.1 ± 4.2 | –
298.15 K, 60000 kPa | – | 1410.3 ± 3.2
298.15 K, 70000 kPa | – | 1435.1 ± 3.2
298.15 K, 80000 kPa | – | 1459 ± 3.2
298.15 K, 90000 kPa | – | 1482.1 ± 3.2
298.15 K, 100000 kPa | – | 1504.5 ± 3.2
298.15 K, 112500 kPa | – | 1531.7 ± 3.2
298.15 K, 125000 kPa | – | 1557.6 ± 3.2
298.15 K, 137510 kPa | – | 1582.8 ± 3.2
298.15 K, 150000 kPa | – | 1606 ± 3.2
298.15 K, 162500 kPa | – | 1629.6 ± 3.2
298.15 K, 175000 kPa | – | 1652.5 ± 3.2
298.15 K, 187500 kPa | – | 1674.5 ± 3.2
298.15 K, 200000 kPa | – | 1695.9 ± 3.2
299.15 K, 100 kPa | 1474.62 ± 2.5 | –
299.15 K, 1830 kPa | 1475.87 ± 2.6 | –
299.15 K, 10020 kPa | 1482.12 ± 2.8 | –
299.15 K, 14980 kPa | 1485.68 ± 3 | –
299.15 K, 19750 kPa | 1489.01 ± 3.1 | –
299.15 K, 25860 kPa | 1493.18 ± 3.2 | –
299.15 K, 31480 kPa | 1496.89 ± 3.4 | –
299.15 K, 37770 kPa | 1500.95 ± 3.6 | –
299.15 K, 44170 kPa | 1504.95 ± 3.8 | –
299.15 K, 50750 kPa | 1509.07 ± 4 | –
299.15 K, 59590 kPa | 1514.22 ± 4.2 | –
300.15 K, 100 kPa | 1473.66 ± 2.5 | –
300.15 K, 1830 kPa | 1474.94 ± 2.6 | –
300.15 K, 10020 kPa | 1481.1 ± 2.8 | –
300.15 K, 14980 kPa | 1484.68 ± 2.9 | –
300.15 K, 19750 kPa | 1488.07 ± 3.1 | –
300.15 K, 25860 kPa | 1492.27 ± 3.2 | –
300.15 K, 31480 kPa | 1496.03 ± 3.4 | –
300.15 K, 37770 kPa | 1500.11 ± 3.6 | –
300.15 K, 44170 kPa | 1504.13 ± 3.8 | –
300.15 K, 50750 kPa | 1508.14 ± 4 | –
300.15 K, 59590 kPa | 1513.35 ± 4.2 | –
301.15 K, 100 kPa | 1472.79 ± 2.5 | –
301.15 K, 1830 kPa | 1474.07 ± 2.6 | –
301.15 K, 10020 kPa | 1480.19 ± 2.8 | –
301.15 K, 14980 kPa | 1483.74 ± 2.9 | –
301.15 K, 19750 kPa | 1487.1 ± 3.1 | –
301.15 K, 25860 kPa | 1491.35 ± 3.2 | –
301.15 K, 31480 kPa | 1495.08 ± 3.4 | –
301.15 K, 37770 kPa | 1499.16 ± 3.6 | –
301.15 K, 44170 kPa | 1503.18 ± 3.8 | –
301.15 K, 50750 kPa | 1507.27 ± 4 | –
301.15 K, 59590 kPa | 1512.51 ± 4.2 | –
302.15 K, 100 kPa | 1471.92 ± 2.5 | –
302.15 K, 1830 kPa | 1473.15 ± 2.6 | –
302.15 K, 10020 kPa | 1479.27 ± 2.8 | –
302.15 K, 14980 kPa | 1482.84 ± 2.9 | –
302.15 K, 19750 kPa | 1486.21 ± 3.1 | –
302.15 K, 25860 kPa | 1490.42 ± 3.2 | –
302.15 K, 31480 kPa | 1494.19 ± 3.4 | –
302.15 K, 37770 kPa | 1498.29 ± 3.6 | –
302.15 K, 44170 kPa | 1502.37 ± 3.8 | –
302.15 K, 50750 kPa | 1506.46 ± 3.9 | –
302.15 K, 59590 kPa | 1511.74 ± 4.2 | –
303.15 K, 100 kPa | 1471.14 ± 2.5 | –
303.15 K, 1830 kPa | 1472.39 ± 2.6 | –
303.15 K, 10020 kPa | 1478.49 ± 2.8 | –
303.15 K, 14980 kPa | 1482 ± 2.9 | –
303.15 K, 19750 kPa | 1485.41 ± 3.1 | –
303.15 K, 25860 kPa | 1489.57 ± 3.2 | –
303.15 K, 31480 kPa | 1493.32 ± 3.4 | –
303.15 K, 37770 kPa | 1497.43 ± 3.6 | –
303.15 K, 44170 kPa | 1501.5 ± 3.8 | –
303.15 K, 50750 kPa | 1505.6 ± 3.9 | –
303.15 K, 59590 kPa | 1510.93 ± 4.2 | –
308.15 K, 100 kPa | 1466.83 ± 2.5 | –
308.15 K, 500 kPa | – | 1214 ± 3.1
308.15 K, 1830 kPa | 1468.1 ± 2.6 | –
308.15 K, 3500 kPa | – | 1224.4 ± 3.1
308.15 K, 7000 kPa | – | 1236.2 ± 3.1
308.15 K, 10000 kPa | – | 1246.2 ± 3.1
308.15 K, 10020 kPa | 1474.12 ± 2.8 | –
308.15 K, 13500 kPa | – | 1257.6 ± 3.1
308.15 K, 14980 kPa | 1477.65 ± 2.9 | –
308.15 K, 17000 kPa | – | 1268.6 ± 3.1
308.15 K, 19750 kPa | 1480.89 ± 3 | –
308.15 K, 20000 kPa | – | 1278 ± 3.1
308.15 K, 25860 kPa | 1485.18 ± 3.2 | –
308.15 K, 30000 kPa | – | 1308.6 ± 3.2
308.15 K, 31480 kPa | 1489 ± 3.4 | –
308.15 K, 37770 kPa | 1493.05 ± 3.5 | –
308.15 K, 40000 kPa | – | 1337.1 ± 3.2
308.15 K, 44170 kPa | 1497.15 ± 3.7 | –
308.15 K, 50000 kPa | – | 1364.7 ± 3.2
308.15 K, 50750 kPa | 1501.36 ± 3.9 | –
308.15 K, 59590 kPa | 1506.81 ± 4.2 | –
308.15 K, 60000 kPa | – | 1391 ± 3.2
308.15 K, 70000 kPa | – | 1416.2 ± 3.2
308.15 K, 80000 kPa | – | 1440.3 ± 3.2
308.15 K, 90000 kPa | – | 1463.7 ± 3.2
308.15 K, 100000 kPa | – | 1486.4 ± 3.2
308.15 K, 112500 kPa | – | 1513.6 ± 3.2
308.15 K, 125000 kPa | – | 1539.9 ± 3.2
308.15 K, 137510 kPa | – | 1565.2 ± 3.2
308.15 K, 150000 kPa | – | 1589.6 ± 3.2
308.15 K, 162500 kPa | – | 1613.3 ± 3.2
308.15 K, 175000 kPa | – | 1636.3 ± 3.2
308.15 K, 187500 kPa | – | 1658.6 ± 3.2
308.15 K, 200000 kPa | – | 1680.4 ± 3.2
313.15 K, 100 kPa | 1462.07 ± 2.5 | –
313.15 K, 1830 kPa | 1463.28 ± 2.5 | –
313.15 K, 10020 kPa | 1469.31 ± 2.8 | –
313.15 K, 14980 kPa | 1472.86 ± 2.9 | –
313.15 K, 19750 kPa | 1476.15 ± 3 | –
313.15 K, 25860 kPa | 1480.43 ± 3.2 | –
313.15 K, 31480 kPa | 1484.36 ± 3.3 | –
313.15 K, 37770 kPa | 1488.4 ± 3.5 | –
313.15 K, 44170 kPa | 1492.56 ± 3.7 | –
313.15 K, 50750 kPa | 1496.83 ± 3.9 | –
313.15 K, 59590 kPa | 1502.49 ± 4.1 | –
318.15 K, 100 kPa | 1457.05 ± 2.5 | –
318.15 K, 500 kPa | – | 1192.3 ± 3.1
318.15 K, 1830 kPa | 1458.31 ± 2.5 | –
318.15 K, 3500 kPa | – | 1202.9 ± 3.1
318.15 K, 7000 kPa | – | 1215 ± 3.1
